Source: ChEMBL document CHEMBL5528008, “Design and synthesis of the first PARP-1 and proteasome dual inhibitors to treat breast cancer” (Eur J Med Chem, 2024)
Values belong to the compound of their own block, whether it stands above or below them. Activity calls are given as the source filed them. The rule behind the calls is not given here.

What was measured:
BT-549 [1] = test: Cytotoxicity against human BT-549 cells assessed as inhibition of cell growth incubated for 72 hrs by MTT assay; assay type: functional, cell-based; settings: BT-549, 72 h
MDA-MB-231 [2] = test: Cytotoxicity against human MDA-MB-231 cells assessed as inhibition of cell growth incubated for 72 hrs by MTT assay; assay type: functional, cell-based; settings: MDA-MB-231, 72 h
MCF7 [3] = test: Cytotoxicity against human MCF7 cells assessed as inhibition of cell growth incubated for 72 hrs by MTT assay; assay type: functional, cell-based; settings: MCF7, 72 h
BT-549 [4] = test: Synergistic antiproliferative activity against human BT-549 cells assessed as synergistic score in presence of Olaparib; assay type: functional
BT-549 [5] = test: Induction of DNA damage in human BT-549 cells assessed as increase in gamma-H2AX localization in nucleus at 0.125 uM incubated for 48 hrs by fluorescence confocal microscopic analysis; assay type: functional, cell-based
BT-549 [6] = test: Synergistic antiproliferative activity against human BT-549 cells assessed as synergistic score in presence of Ixazomib; assay type: functional
BT-549 [7] = test: Induction of DNA damage in human BT-549 cells assessed as upregulation of gamma-H2AX level at 1 uM incubated for 48 hrs by immunoblotting analysis; assay type: functional, cell-based
BT-549 [8] = test: Induction of DNA damage in human BT-549 cells assessed as upregulation of gamma-H2AX level at 0.5 uM incubated for 48 hrs by immunoblotting analysis; assay type: functional, cell-based
[9] = target: T1, Poly [ADP-ribose] polymerase 1 (Homo sapiens, UniProt P09874); test: Inhibition of PARP-1 (unknown origin) assessed as fold change in inhibition using Femto-ECL as substrate preincubated for 2.7 hrs followed by substrate addition by chemiluminescence assay
BT-549 [10] = test: Induction of DNA damage in human BT-549 cells assessed as decrease in BRCA1 localization in nucleus at 0.125 uM incubated for 48 hrs by fluorescence confocal microscopic analysis; assay type: functional, cell-based
BT-549 [11] = test: Induction of apoptosis in human BT-549 cells assessed as increase in early apoptotic cells incubated for 48 hrs by Annexin V-FITC/PI staining based flow cytometric analysis; assay type: functional, cell-based
BT-549 [12] = test: Antiproliferative activity against human BT-549 cells assessed as fold change in inhibition of cell growth at 0.3 to 1.2 uM incubated for 72 hrs by MTT assay; assay type: functional; settings: dose 0.3-1.2 µM
ES-2 = test: Antiproliferative activity against human ES2 cells assessed as fold change in inhibition of cell growth at 0.3 to 1.2 uM incubated for 72 hrs by MTT assay; assay type: functional; settings: dose 0.3-1.2 µM
[13] = target: T1, Poly [ADP-ribose] polymerase 1; test: Inhibition of PARP-1 in human BT-549 cells assessed as downregulation of BRCA2 mRNA expression incubated for 48 hrs by RT-qPCR analysis; assay type: cell-based
[14] = Antiproliferative activity against human COV362 cells assessed as fold change in inhibition of cell growth at 0.3 to 1.2 uM incubated for 72 hrs by MTT assay; assay type: functional; settings: dose 0.3-1.2 µM
BT-549 [15] = test: Induction in cell cycle arrest in human BT-549 cells assessed as downregulation of CDK1 expression at 0.5 uM incubated for 48 hrs by Western blotting analysis; assay type: functional, cell-based
BT-549 [16] = test: Induction in cell cycle arrest in human BT-549 cells assessed as downregulation of Cyclin A2 expression at 0.05 uM incubated for 48 hrs by Western blotting analysis; assay type: functional, cell-based
[17] = target: T1, Poly [ADP-ribose] polymerase 1; test: Inhibition of PARP-1 in human BT-549 cells assessed as downregulation of P-ATM expression at 0.5 uM incubated for 48 hrs by immunoblotting analysis; assay type: cell-based
[18] = target: T1, Poly [ADP-ribose] polymerase 1; test: Inhibition of PARP-1 in human BT-549 cells assessed as downregulation of FANCD2 mRNA expression incubated for 48 hrs by RT-qPCR analysis; assay type: cell-based
BT-549 [19] = test: Induction of DNA damage in human BT-549 cells assessed as decrease in ubiquitin localization in nucleus at 0.125 uM incubated for 48 hrs by fluorescence confocal microscopic analysis; assay type: functional, cell-based
SK-OV-3 = test: Antiproliferative activity against human SK-OV-3 cells assessed as fold change in inhibition of cell growth at 0.3 to 1.2 uM incubated for 72 hrs by MTT assay; assay type: functional; settings: dose 0.3-1.2 µM
[20] = target: T1, Poly [ADP-ribose] polymerase 1; test: Inhibition of PARP-1 in human BT-549 cells assessed as downregulation of RAD51 expression at 0.05 uM incubated for 48 hrs by immunoblotting analysis; assay type: cell-based
BT-549 [21] = test: Induction in cell cycle arrest in human BT-549 cells assessed as upregulation of p21 expression at 0.05 uM incubated for 48 hrs by Western blotting analysis; assay type: functional, cell-based
MCF7 [22] = test: Antiproliferative activity against human MCF7 cells assessed as fold change in inhibition of cell growth at 0.3 to 1.2 uM incubated for 72 hrs by MTT assay; assay type: functional; settings: dose 0.3-1.2 µM
[23] = target: T1, Poly [ADP-ribose] polymerase 1; test: Inhibition of PARP-1 in human BT-549 cells assessed as downregulation of BRCA1 expression at 0.05 uM incubated for 48 hrs by immunoblotting analysis; assay type: cell-based
[24] = target: T1, Poly [ADP-ribose] polymerase 1; test: Inhibition of PARP-1 in human BT-549 cells assessed as downregulation of BRCA1 expression at 0.5 uM incubated for 48 hrs by immunoblotting analysis; assay type: cell-based
PC-3 = test: Antiproliferative activity against human PC-3 cells assessed as fold change in inhibition of cell growth at 0.3 to 1.2 uM incubated for 72 hrs by MTT assay; assay type: functional; settings: dose 0.3-1.2 µM
BT-549 [25] = test: Induction of apoptosis in human BT-549 cells assessed as upregulation of cleaved PARP expression incubated for 48 hrs by Western blotting analysis; assay type: functional, cell-based
[26] = target: T1, Poly [ADP-ribose] polymerase 1; test: Inhibition of PARP-1 in human BT-549 cells assessed as downregulation of BRCA1 mRNA expression incubated for 48 hrs by RT-qPCR analysis; assay type: cell-based
BT-549 [27] = test: Induction in cell cycle arrest in human BT-549 cells assessed as downregulation of Cyclin A2 expression at 0.5 uM incubated for 48 hrs by Western blotting analysis; assay type: functional, cell-based
20S proteasome = test: Inhibition of 20S proteasome (unknown origin) using […] as substrate; assay type: protein-complex assay, Homo sapiens
BT-549 [28] = test: Inhibition of colony formation in human BT-549 cells assessed as reduction in colony number incubated for 14 days by crystal violet staining based analysis; assay type: functional, cell-based; settings: time 14.0 day
[29] = target: T1, Poly [ADP-ribose] polymerase 1; test: Inhibition of PARP-1 in human BT-549 cells assessed as downregulation of RAD51 mRNA expression incubated for 48 hrs by RT-qPCR analysis; assay type: cell-based
HEY = test: Antiproliferative activity against human HEY cells assessed as fold change in inhibition of cell growth at 0.3 to 1.2 uM incubated for 72 hrs by MTT assay; assay type: functional; settings: dose 0.3-1.2 µM
MDA-MB-231 [30] = test: Antiproliferative activity against human MDA-MB-231 cells assessed as fold change in inhibition of cell growth at 0.3 to 1.2 uM incubated for 72 hrs by MTT assay; assay type: functional; settings: dose 0.3-1.2 µM
BT-549 [31] = test: Induction of DNA damage in human BT-549 cells assessed as increase in polyubiquitination at 0.125 uM incubated for 48 hrs by fluorescence confocal microscopic analysis; assay type: functional, cell-based
BT-549 [32] = test: Induction in cell cycle arrest in human BT-549 cells assessed as downregulation of CDK1 expression at 0.05 uM incubated for 48 hrs by Western blotting analysis; assay type: functional, cell-based
[33] = target: T1, Poly [ADP-ribose] polymerase 1; test: Inhibition of PARP-1 in human BT-549 cells assessed as downregulation of P-ATM expression at 0.05 uM incubated for 48 hrs by immunoblotting analysis; assay type: cell-based
BT-549 [34] = test: Inhibition of colony formation in human BT-549 cells assessed as reduction in colony size incubated for 14 days by crystal violet staining based analysis; assay type: functional, cell-based; settings: time 14.0 day
BT-549 [35] = test: Induction of apoptosis in human BT-549 cells assessed as increase in late apoptotic cells incubated for 48 hrs by Annexin V-FITC/PI staining based flow cytometric analysis; assay type: functional, cell-based
[36] = target: T1, Poly [ADP-ribose] polymerase 1; test: Inhibition of PARP-1 (unknown origin) using Femto-ECL as substrate preincubated for 2.7 hrs followed by substrate addition by chemiluminescence assay
NCI-H1299 = test: Antiproliferative activity against human NCI-H1299 cells assessed as fold change in inhibition of cell growth at 0.3 to 1.2 uM incubated for 72 hrs by MTT assay; assay type: functional; settings: dose 0.3-1.2 µM
BT-549 [37] = test: Induction in cell cycle arrest in human BT-549 cells assessed as upregulation of p21 expression at 0.5 uM incubated for 48 hrs by Western blotting analysis; assay type: functional, cell-based
BT-549 [38] = test: Induction of DNA damage in human BT-549 cells assessed as decrease in polyubiquitination in nucleus at 0.125 uM incubated for 48 hrs by fluorescence confocal microscopic analysis; assay type: functional, cell-based
A549 = test: Antiproliferative activity against human A549 cells assessed as fold change in inhibition of cell growth at 0.3 to 1.2 uM incubated for 72 hrs by MTT assay; assay type: functional; settings: dose 0.3-1.2 µM
[39] = target: T1, Poly [ADP-ribose] polymerase 1; test: Inhibition of PARP-1 in human BT-549 cells assessed as downregulation of RAD51 expression at 0.5 uM incubated for 48 hrs by immunoblotting analysis; assay type: cell-based
BT-549 [40] = test: Induction of apoptosis in human BT-549 cells assessed as upregulation of cleaved caspase-3 expression incubated for 48 hrs by Western blotting analysis; assay type: functional, cell-based
BT-549 [41] = test: Induction of DNA damage in human BT-549 cells assessed as upregulation of gamma-H2AX level at 0.05 uM incubated for 48 hrs by immunoblotting analysis; assay type: functional, cell-based

T1 sequence (P09874 whole entry): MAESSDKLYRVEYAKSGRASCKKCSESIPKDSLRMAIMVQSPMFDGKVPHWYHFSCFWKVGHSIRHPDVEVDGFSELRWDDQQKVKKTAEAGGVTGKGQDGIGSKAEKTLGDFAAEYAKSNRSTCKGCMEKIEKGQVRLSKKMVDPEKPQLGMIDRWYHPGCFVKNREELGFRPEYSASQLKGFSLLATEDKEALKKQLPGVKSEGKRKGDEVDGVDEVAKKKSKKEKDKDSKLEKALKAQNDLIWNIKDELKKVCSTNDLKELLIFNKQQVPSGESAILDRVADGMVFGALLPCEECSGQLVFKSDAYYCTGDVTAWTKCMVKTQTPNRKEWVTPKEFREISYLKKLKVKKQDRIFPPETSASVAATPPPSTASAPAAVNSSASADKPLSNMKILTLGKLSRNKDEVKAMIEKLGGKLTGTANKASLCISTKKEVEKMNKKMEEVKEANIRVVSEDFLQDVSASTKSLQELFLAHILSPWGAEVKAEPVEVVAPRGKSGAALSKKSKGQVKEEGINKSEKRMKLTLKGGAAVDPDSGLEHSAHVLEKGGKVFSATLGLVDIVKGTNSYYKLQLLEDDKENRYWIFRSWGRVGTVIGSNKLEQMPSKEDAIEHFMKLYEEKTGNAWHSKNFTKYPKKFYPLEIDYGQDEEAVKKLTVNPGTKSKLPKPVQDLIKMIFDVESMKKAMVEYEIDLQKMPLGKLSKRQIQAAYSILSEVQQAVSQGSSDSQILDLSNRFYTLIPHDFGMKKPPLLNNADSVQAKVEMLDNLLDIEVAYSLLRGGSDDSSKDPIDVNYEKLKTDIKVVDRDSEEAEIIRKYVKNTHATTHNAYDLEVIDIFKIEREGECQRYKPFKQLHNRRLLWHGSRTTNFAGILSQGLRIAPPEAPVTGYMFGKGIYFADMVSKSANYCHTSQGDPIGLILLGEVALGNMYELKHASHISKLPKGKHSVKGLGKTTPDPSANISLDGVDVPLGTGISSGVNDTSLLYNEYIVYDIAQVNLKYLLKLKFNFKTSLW

Compound: CC(C)C[C@H](NC(=O)CNC(=O)c1cc(Cl)ccc1Cl)B(O)O [IXAZOMIB]
IC50 (BT-549 [1]): 227 nM
IC50 (MDA-MB-231 [2]): 42.6 nM
IC50 (MCF7 [3]): 135 nM
Activity (BT-549 [4]): 12.191
Activity (BT-549 [5]): inactive

Compound: O=C(c1cc(Cc2n[nH]c(=O)c3ccccc23)ccc1F)N1CCN(C(=O)C2CC2)CC1 [OLAPARIB]
Activity (BT-549 [6]): 12.407
IC50 (BT-549 [1]): 6610 nM
IC50 (MDA-MB-231 [2]): > 30000 nM
IC50 (MCF7 [3]): 10600 nM
Activity (BT-549 [7]): Active
Activity (BT-549 [8]): Active

fold change (FC) [9]: 100
Compound: CC(C)C[C@H](NC(=O)[C@H](CC(C)C)NC(=O)c1cc(Cc2nn(C)c(=O)c3ccccc23)ccc1F)B1O[C@@H]2C[C@@H]3C[C@@H](C3(C)C)[C@]2(C)O1

inhibition [13]: Dose-Dependent Effect
inhibition [17]: Active
inhibition [18]: Dose-Dependent Effect
inhibition [20]: Active
inhibition [23]: Active
inhibition [24]: Active
inhibition [26]: Dose-Dependent Effect
IC50 (20S proteasome): 60.9 nM
inhibition [29]: Dose-Dependent Effect
inhibition [33]: Active
IC50 [36]: 137 nM
inhibition [39]: Active
Compound: CC(C)C[C@H](NC(=O)[C@H](CC(C)C)NC(=O)c1cc(Cc2n[nH]c(=O)c3ccccc23)ccc1F)B1O[C@@H]2C[C@@H]3C[C@@H](C3(C)C)[C@]2(C)O1
Activity (BT-549 [10]): Active
Activity (BT-549 [11]): Dose-Dependent Effect
fold change (FC) (BT-549 [12]): 10
fold change (FC) (ES-2): 1
fold change (FC) [14]: 1
Activity (BT-549 [15]): Active
Activity (BT-549 [16]): Active
Activity (BT-549 [19]): Active
fold change (FC) (SK-OV-3): 1
IC50 (BT-549 [1]): 17.8 nM
Activity (BT-549 [21]): Active
fold change (FC) (MCF7 [22]): 10
IC50 (MDA-MB-231 [2]): 31.2 nM
IC50 (MCF7 [3]): 49.5 nM
fold change (FC) (PC-3): 1
Activity (BT-549 [25]): Dose-Dependent Effect
Activity (BT-549 [27]): Active
inhibition (BT-549 [28]): Dose-Dependent Effect
fold change (FC) (HEY): 1
fold change (FC) (MDA-MB-231 [30]): 10
Activity (BT-549 [31]): Active
Activity (BT-549 [32]): Active
inhibition (BT-549 [34]): Dose-Dependent Effect
Activity (BT-549 [35]): Dose-Dependent Effect
fold change (FC) (NCI-H1299): 1
Activity (BT-549 [37]): Active
Activity (BT-549 [38]): Active
Activity (BT-549 [5]): Active
fold change (FC) (A549): 1
Activity (BT-549 [8]): Active
Activity (BT-549 [40]): Dose-Dependent Effect
Activity (BT-549 [41]): Active
